According to patent US7893074B2, “2, 4-pyrimidinediamines useful in the treatment of neoplastic diseases, inflammatory and immune system disorders” (Novartis AG, priority 2003, dated 2011):
Where two headings read alike, the source gives them in different places.

Assays:
[1] = molecular target: Focal Adhesion Kinase (FAK) (Homo sapiens, UniProt Q05397); assay: FAK assay system (Focal Adhesion Kinase inhibition); format: biochemical; details: read-out: FAK IC50
[2] = test system: Mouse mammary carcinoma 4T1 cells; assay: Anchorage-independent tumor cell growth assay; format: cell-based
Description: Cells are cultured for 2 h and inhibitors are added at various concentrations in a final concentration of 0.1% DMSO. After 48 h, cell growth is assayed with the cell counting kit-8 (Wako Pure Chemical), which uses a water soluble tetrazolium salt WST8. Twenty μL of the reagent is added into each well and cells are further cultured for 2 h. The optical density is measured at 450 nm.

FAK = FAK (Mus musculus, UniProt P34152); assay: Phos IC50 (phosphorylation); format: cell-based
Chain of FAK (P34152 2-1052): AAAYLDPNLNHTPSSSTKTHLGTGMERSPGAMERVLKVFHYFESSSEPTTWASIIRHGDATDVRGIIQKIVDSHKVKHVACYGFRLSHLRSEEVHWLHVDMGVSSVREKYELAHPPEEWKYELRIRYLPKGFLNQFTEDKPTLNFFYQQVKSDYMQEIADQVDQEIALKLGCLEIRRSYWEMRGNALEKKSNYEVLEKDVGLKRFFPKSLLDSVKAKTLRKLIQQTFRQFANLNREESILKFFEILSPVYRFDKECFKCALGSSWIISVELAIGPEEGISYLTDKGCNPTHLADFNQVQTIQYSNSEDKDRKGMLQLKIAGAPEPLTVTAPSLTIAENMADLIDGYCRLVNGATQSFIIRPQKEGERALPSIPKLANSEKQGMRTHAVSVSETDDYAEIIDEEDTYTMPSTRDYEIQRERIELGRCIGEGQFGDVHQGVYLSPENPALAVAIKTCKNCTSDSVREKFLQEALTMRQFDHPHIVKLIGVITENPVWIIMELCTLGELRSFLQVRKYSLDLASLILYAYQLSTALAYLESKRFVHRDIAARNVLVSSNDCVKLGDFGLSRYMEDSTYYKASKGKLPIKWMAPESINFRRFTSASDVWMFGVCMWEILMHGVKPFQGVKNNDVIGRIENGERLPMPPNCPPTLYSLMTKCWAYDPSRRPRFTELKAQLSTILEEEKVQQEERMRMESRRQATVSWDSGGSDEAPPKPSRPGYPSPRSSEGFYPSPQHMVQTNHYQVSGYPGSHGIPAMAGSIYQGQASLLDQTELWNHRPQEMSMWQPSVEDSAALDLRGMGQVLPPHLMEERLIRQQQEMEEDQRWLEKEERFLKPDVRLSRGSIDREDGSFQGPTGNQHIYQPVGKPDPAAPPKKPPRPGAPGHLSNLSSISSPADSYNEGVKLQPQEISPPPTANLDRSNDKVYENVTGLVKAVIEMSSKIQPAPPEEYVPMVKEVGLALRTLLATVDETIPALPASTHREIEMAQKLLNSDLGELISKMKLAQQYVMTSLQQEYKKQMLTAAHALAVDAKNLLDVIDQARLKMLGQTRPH

Chain of Focal Adhesion Kinase (FAK) (Q05397 384-706): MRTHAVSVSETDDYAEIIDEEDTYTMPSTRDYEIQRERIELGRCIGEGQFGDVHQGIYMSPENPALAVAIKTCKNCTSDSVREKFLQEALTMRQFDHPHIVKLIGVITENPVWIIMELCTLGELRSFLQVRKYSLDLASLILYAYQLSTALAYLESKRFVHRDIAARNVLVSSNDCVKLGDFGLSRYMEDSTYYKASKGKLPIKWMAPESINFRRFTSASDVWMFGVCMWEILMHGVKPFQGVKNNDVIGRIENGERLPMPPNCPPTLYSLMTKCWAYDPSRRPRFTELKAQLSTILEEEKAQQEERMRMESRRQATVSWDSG

IC50 [1]	IC50 ([2]; Mus musculus, 4T1)	IC50 (FAK)	IC50 [2]	SMILES
16 nM	300 nM	220 nM	–	CNS(=O)(=O)c1ccccc1Nc1nc(Nc2cc(N3CCOCC3)ccc2C)ncc1Br [Example 3-20]
6.3 nM	560 nM	> 10000 nM	–	CCS(=O)(=O)c1ccccc1Nc1nc(Nc2ccc(-n3cncn3)cc2OC)ncc1Cl [Example 27-3]
5.6 nM	990 nM	100 nM	–	CCC(CC)S(=O)(=O)c1ccccc1Nc1nc(Nc2ccc(N3CCN(C(C)=O)CC3)cc2OC)ncc1Cl [Example 29-3]
1 nM	60 nM	100 nM	–	CNS(=O)(=O)c1ccccc1Nc1nc(Nc2ccc(N3CCNCC3)cc2OC)ncc1Br [Example 3-47]
2.5 nM	1100 nM	300 nM	–	COc1cc(N2CCC(NC(C)=O)C2)ccc1Nc1ncc(Cl)c(Nc2ccccc2S(=O)(=O)NC(C)C)n1 (stereo not drawn) [Example 19-13]
3.4 nM	510 nM	120 nM	–	COc1cc(NCC(C)(C)CO)ccc1Nc1ncc(Cl)c(Nc2ccccc2S(=O)(=O)NC(C)C)n1 [Example 19-22]
3.5 nM	130 nM	20 nM	–	CNS(=O)(=O)c1ccccc1Nc1nc(Nc2ccc(OCCCN3CCOCC3)cc2OC)ncc1Br [Example 3-70]
89 nM	> 10000 nM	600 nM	–	CCOc1ccc(-c2ccccc2)cc1Nc1ncc(Br)c(Nc2ccccc2S(=O)(=O)NC)n1 [Example 3-29]
6.6 nM	980 nM	1000 nM	–	CNC(=O)c1ccccc1Nc1nc(Nc2ccc(N3CCC(OCCOC)CC3)cc2OC)ncc1Cl [Example 7-10]
63 nM	> 10000 nM	> 10000 nM	–	CNS(=O)(=O)c1ccccc1Nc1nc(Nc2cc(OC)ccc2OC(C)C)ncc1Br [Example 3-62]
6.7 nM	490 nM	300 nM	–	CCC(CC)NS(=O)(=O)c1ccccc1Nc1nc(Nc2ccc(OCCN3CCOCC3)cc2OC)ncc1Cl [Example 23-8]
110 nM	5000 nM	350 nM	–	NS(=O)(=O)c1ccccc1Nc1nc(Nc2cccc3c2OC(F)(F)O3)ncc1Br [Compound 6, 2-[5-Bromo-2-(2,3-[difluoromethylenedioxy]phenylamino)-pyrimidin-4-ylamino]-benzenesulfonamide]
43 nM	> 10000 nM	> 10000 nM	–	COc1ccc(F)cc1Nc1ncc(Cl)c(Nc2ccccc2S(=O)(=O)NCC(C)C)n1 [Example 22-1]
28 nM	3000 nM	610 nM	–	CCOc1ccc(N2CCOCC2)cc1Nc1ncc(Br)c(Nc2ccccc2S(=O)(=O)NC)n1 [Example 3-57]
1 nM	310 nM	80 nM	–	CCS(=O)(=O)c1ccccc1Nc1nc(Nc2ccc(N3CCCC(C(N)=O)C3)cc2OC)ncc1Cl (stereo not drawn) [Example 27-6]
8.5 nM	> 10000 nM	330 nM	–	CCC(C)NS(=O)(=O)c1ccccc1Nc1nc(Nc2ccc(F)cc2OC)ncc1Cl (stereo not drawn) [Example 21-2]
1.7 nM	300 nM	300 nM	–	CCC(C)NS(=O)(=O)c1ccccc1Nc1nc(Nc2ccc(OC3CCN(C)CC3)cc2OC)ncc1Cl (stereo not drawn) [Example 21-3]
23 nM	2400 nM	900 nM	–	CNC(=O)c1c(C)cccc1Nc1nc(Nc2ccc(N3CCOCC3)cc2OC)ncc1Cl [Example 10-3]
5 nM	120 nM	1300 nM	–	CNS(=O)(=O)c1ccccc1Nc1nc(Nc2ccc(OC3CCNCC3)cc2OC)ncc1Br [Example 3-79]
26 nM	100 nM	410 nM	–	CNC(=O)c1cc(F)ccc1Nc1nc(Nc2cccc3c2ccn3C)ncc1Cl [Example 11-3]

IC50 [1]	IC50 ([2]; Mus musculus, 4T1)	IC50 (FAK)	IC50 [2]	SMILES
29 nM	2000 nM	420 nM	–	CNS(=O)(=O)c1ccccc1Nc1nc(Nc2cc(Cl)ccc2OC)ncc1Br [Example 3-52]
34 nM	3000 nM	> 10000 nM	–	CCOc1ccc(OCC)c(Nc2ncc(Br)c(Nc3ccccc3S(=O)(=O)NC)n2)c1 [Example 3-55]
< 1 nM	260 nM	310 nM	–	CCCS(=O)(=O)c1ccccc1Nc1nc(Nc2ccc(N3CCC(N4CCCC4)CC3)cc2OC)ncc1Cl [Example 26-29]
44 nM	> 10000 nM	340 nM	–	CNS(=O)(=O)c1ccccc1Nc1nc(Nc2cccc3c2OC(F)(F)O3)ncc1Br [Example 3-1]
13 nM	730 nM	200 nM	–	CCNC(=O)c1ccccc1Nc1nc(Nc2ccc(N3CCC(N4CCCC4)CC3)cc2OC)ncc1Cl [Example 9-4]
14 nM	–	400 nM	970 nM	CNS(=O)(=O)c1ccccc1Nc1nc(Nc2ccc(N3CCCC(C(N)=O)C3)cc2OC)ncc1Cl (stereo not drawn) [Example 20-15]
1.6 nM	440 nM	200 nM	–	CCCS(=O)(=O)c1ccccc1Nc1nc(Nc2ccc(N3CCC[C@@H](C(N)=O)C3)cc2OC)ncc1Cl [Example 26-13]
64 nM	3800 nM	1700 nM	–	CNS(=O)(=O)c1ccccc1Nc1nc(Nc2cc(F)ccc2Cl)ncc1Br [Example 3-38]
8 nM	190 nM	> 10000 nM	–	CNS(=O)(=O)c1ccccc1Nc1nc(Nc2cc(OCCN3CCN(C)CC3)ccc2OC)ncc1Cl [Example 20-22]
9.3 nM	750 nM	600 nM	–	CCS(=O)(=O)c1ccccc1Nc1nc(Nc2ccc(N3CCC[C@@H](C(N)=O)C3)cc2OC)ncc1Cl [Example 27-8]
23 nM	1900 nM	580 nM	–	CNS(=O)(=O)c1ccccc1Nc1nc(Nc2ccccc2OC(F)F)ncc1Cl [Example 20-4]
28 nM	> 10000 nM	900 nM	–	COc1cc(F)ccc1Nc1ncc(Cl)c(Nc2ccccc2S(=O)(=O)NCC(F)(F)F)n1 [Example 16C]
5.3 nM	270 nM	760 nM	–	CNS(=O)(=O)c1ccccc1Nc1nc(Nc2cc(OCC3CCN(C)CC3)ccc2OC)ncc1Cl [Example 20-26]
15 nM	1030 nM	1000 nM	–	COc1cc(N2CCC[C@@H](C(N)=O)C2)ccc1Nc1ncc(Cl)c(Nc2ccccc2S(=O)(=O)C2CC2)n1 [Example 30-6]
6 nM	390 nM	380 nM	–	CNS(=O)(=O)c1ccccc1Nc1nc(Nc2cc(-c3ccccn3)ccc2OC)ncc1Br [Example 3-67]
39 nM	440 nM	1000 nM	–	CNC(=O)c1c(C)cccc1Nc1nc(Nc2ccc(OC3CCN(C)CC3)cc2OC)ncc1Cl [Example 10-1]
8.5 nM	290 nM	2000 nM	–	COc1cc(CN2CCN(C)CC2)ccc1Nc1ncc(Cl)c(Nc2ccccc2S(=O)(=O)C2CC2)n1 [Example 30-5]
10 nM	220 nM	> 10000 nM	–	CNS(=O)(=O)c1ccccc1Nc1nc(Nc2cc(OC3CCNCC3)ccc2OC)ncc1Br [Example 3-78]
7.5 nM	300 nM	300 nM	–	COc1cc(-n2cncn2)ccc1Nc1ncc(Cl)c(Nc2ccccc2S(=O)(=O)C(C)C)n1 [Example 28-4]
